Data: US8148347B2, “Inhibition of interaction of PSD93 and PSDS95 with nNOS and NMDA receptors” (The Johns Hopkins University, priority 2000, dated 2012)

Legend:
[1] = tested on: PSD-95/SAP90; experiment: immunoblot of PSD-95/SAP90 expression in spinal cord of OND-treated rats; type: in vivo, rat
Source text: Antisense ONDs, widely used as research tools and even as drugs in clinical trials, inhibit protein expression by the mechanisms of (1) steric blockade of ribosomal subunit attachment to mRNA at the 5′ cap site; (2) interference with proper mRNA splicing through antisense binding to splice donor or splice acceptor sites; (3) Rnase-H-mediated degradation of hybridized mRNA.^18 To further examine whether the action of antisense OND for PSD-95/SAP90 above was specifically due to selective decrease or lack of PSD-95/SAP90 but not other proteins in the spinal cord, we detected PSD-95/SAP90, NMDA receptor subunits 2A/2B (NR2A/2B), neuronal nitric oxide synthase (nNOS) and SAP-102 in homogenates from crude lumbar enlargement segments in the normal, saline-treated (control) and OND-treated rats. […]
Animal preparation and behavioral testing. […] Nociception was evaluated by the radiant heat tail-flick test. The doses and time point of maximal effect of NMDA used in the present study were determined based on a previous study.^24 The tail-flick apparatus (Model 33B Tail Flick Analgesy Meter, IITC Life Science, Woodland Hills, Calif., USA) generated a beam of radiant heat that was focused on the underside of the tail, 5 cm from the tip. […] Nociception was assessed by the time required to induce tail-flick after applying radiant heat to the skin of the tail. […]

[2] = tested on: Male Sprague-Dawley rats; experiment: formalin-induced pain behaviors (flinches and shakes); type: in vivo, rat; conditions: for reduction of the number of flinches and shakes evoked by formalin: 50 μg intrathecal
Method: (§1) All of the experiments were carried out with the approval of the Animal Care Committee at the Johns Hopkins University. Thirty-eight male Sprague-Dawley rats (250-300 g, Hilltop Laboratory Animals, Scottsdale, Pa., USA) were implanted with an intrathecal PE-10 catheter at the rostral level of the spinal cord lumbar enlargement according to the method described by Yaksh and Rudy. After 4 to 7 days of recovery, they were intrathecally injected with one of the following agents every 24 hours for 4 consecutive days: saline (10 μl, n=6), PSD-95 antisense oligodeoxynucleotide (ODN) (12.5 μg/10 μl, n=6; 25 μg/10 μl, n=6; 50 μg/10 μl, n=6), sense ODN (50 μg/10 μl, n=5) or missense ODN (50 μg/10 μl, n=9). On the fifth day, formalin (4%, 100 μl) was injected into one of the hindpaws. The number of flinches and shakes of the injected paw was assessed for 1 hour. The observational session was divided into phasic (0-10 min) and tonic (10-60 min) periods. Rats were sacrificed two hours after formalin injection and their lumbar spinal cords were harvested for c-fos immunohistochemistry.

[3] = tested on: c-fos; experiment: c-fos immunohistochemistry in lumbar spinal cord after formalin; type: in vivo, rat
Method: as §1

[4] = tested on: rats; experiment: rat neuropathic pain model, unilateral L5 spinal nerve ligation, hind paw withdrawal; type: in vivo; conditions: 50 μg/10 μl intrathecal every 24 h for 4 days
Method: The effect of the deficiency of PSD-95/SAP90 on mechanical and thermal hyperalgesia in a rat neuropathic pain model was observed. The antisense oligonucleotide (OND) specifically against PSD-95/SAP90 was employed to reduce the expression of PSD-95/SAP90 in spinal cord. The rats were injected intrathecally with saline (10 μl), antisense OND (50 μg/10 μl) or sense OND (50 μg/10 μl) every 24 h for 4 days. The unilateral L5 spinal nerve was ligated. Hind paw withdrawal response to mechanical or heat stimuli was conducted 1 day prior to the surgery and at 3, 5, 7 and 9 days postoperatively. In the saline-treated group, mechanical and thermal hyperalgesia developed within 3 days and persisted for 9 days or longer. […] PSD-95/SAP90 is likely involved in the molecular mechanism of the production of hyperalgesia in neuropathic pain triggered via NMDA receptor activation.

Substance	PSD-95/SAP90 protein in the postsynaptic density (PSD) fraction of the spinal cord ([1]; FIGS. 1Aa and b)	difference in the number of flinches and shakes vs saline-treated group ([2]; 50 μg/10 μl, either period)	PSD-95/SAP90 expression ([1]; spinal cord, after intrathecal treatment (FIG. 1Ab))	decrease of the number of Fos-like immunoreactive neurons per section ([3]; 50 μg intrathecal) [%]	changes in the number of Fos-like immunoreactive neurons vs saline-treated group ([3]; 12.5 and 25 μg)	onset of the mechanical hyperalgesia [4]	onset of the thermal hyperalgesia [4]	reduction of the number of flinches and shakes evoked by formalin ([2]; phasic period (0-10 min))	reduction of the number of flinches and shakes evoked by formalin ([2]; tonic period (10-60 min)) [%]	changes in the number of flinches and shakes vs saline-treated group ([2]; 12.5 and 25 μg, phasic and tonic periods)
5′-AAGCCCTTGTTCCCATTT-3′ (DNA, backbone and methylation of C not given here; listed as Rattus rattus) [MS, missense OND control, reference compound]	enriched	did not show any significant difference								
5′-TGTGATCTCCTCATACTC-3′ (DNA, backbone and methylation of C not given here; listed as Rattus rattus) [antisense oligonucletide corresponding to the PDZ domain nucleotides 241 to 258 of rat PSD-95/SAP90 mRNA]			< 15 % of control	48	failed to produce significant changes	significant delay	significant delay	but not in the phasic period	59	failed to produce significant changes
